# According to patent publication US20110236859A1, “ORAL CARE COMPOSITION CONTAINING OXIDASE ENZYME” (priority 2009, published 2011):
# Test: Glucose oxidase binding to saliva-coated hydroxyapatite disks (Amplex Red horseradish peroxidase coupled assay)
# Experimental: Glucose oxidase binding to saliva coated hydroxyappetite disks is measured using a fluorescent (Amplex Red) horseradish peroxidase coupled assay directly from the disk surface.
# Hydroxyapatite (HAP) disks coated with saliva are commonly used as models of a tooth surface.
# Saliva was collected from 3-5 donors, clarified by centrifugation, and added to cover HAP disks (5 mm×2.0 mm Clarkson Chromatography) in a covered plastic tray. The disks were incubated with the saliva overnight, with gentle shaking, at room temperature. The disks were rinsed twice with 50 mM phosphate buffer prior to use in the binding assay. Varying concentrations of glucose oxidase (50-650 mU/ml) were added to the saliva-coated HAP disks in the presence of sorbitol (0.8-8%) or polyethyleneimine (1%). The amount of glucose oxidase retained on the hydroxyapatite disks, following three consecutive washes with phosphate buffered saline, was measured using a fluorescence (Amplex Red, Molecular Probes #A22189) horseradish peroxidase coupled assay, as per manufacturer's recommendation.
structure (smiles),measurement,setting,value
OC[C@@H](O)[C@@H](O)[C@H](O)[C@@H](O)CO [sorbitol],binding of glucose oxidase to saliva coated hydroxyapatite disks relative to no additive,"FIG. 1, additive sorbitol 8, 0.8, 0.08%, fluorescent Amplex Red HRP coupled assay from disk surface",improve binding relative to no additive
same,amount of active glucose oxidase detected on the hydroxyapatite,"at least 0.8% sorbitol, glucose oxidase 50-650 mU/ml, after three washes with phosphate buffered saline",increased the amount of active glucose oxidase detected on the hydroxyapatite
